Test results taken from the NIST ThermoML archive (doi:10.1021/je060271a).
Several values for one entry are separate records, joined by “and”; a condition that tells them apart may be missing. Equal entries are not always repeated. Numbers after ± are expanded uncertainties.

Settings: 303.16 K, Liquid, Vibrating tube method

## CCCC(=O)OCC(COC(=O)CCC)(COC(=O)CCC)COC(=O)CCC [pentaerythritol tetrabutyrate]
3999.8 kPa
  mass density: 1044.9 ± 1.2 kg/m3
4021.6 kPa
  mass density: 1044.7 ± 1.2 kg/m3
4043.6 kPa
  mass density: 1044.8 ± 1.2 kg/m3
4069.7 kPa
  mass density: 1044.7 ± 1.2 kg/m3
4092.1 kPa
  mass density: 1044.9 ± 1.2 kg/m3
4114.1 kPa
  mass density: 1044.9 ± 1.2 kg/m3
4137.5 kPa
  mass density: 1044.9 ± 1.2 kg/m3
4161.7 kPa
  mass density: 1045 ± 1.2 kg/m3
4182.5 kPa
  mass density: 1044.9 ± 1.2 kg/m3
4206.7 kPa
  mass density: 1045.1 ± 1.2 kg/m3
4227.1 kPa
  mass density: 1044.9 ± 1.2 kg/m3
4251.9 kPa
  mass density: 1044.9 ± 1.2 kg/m3
4272.5 kPa
  mass density: 1044.9 ± 1.2 kg/m3
4293.5 kPa
  mass density: 1045.1 ± 1.2 kg/m3
4314.4 kPa
  mass density: 1045 ± 1.2 kg/m3
4335.5 kPa
  mass density: 1045 ± 1.2 kg/m3
4361 kPa
  mass density: 1045.1 ± 1.2 kg/m3
4381.9 kPa
  mass density: 1045 ± 1.2 kg/m3
4403.9 kPa
  mass density: 1045 ± 1.2 kg/m3
4429.5 kPa
  mass density: 1045.1 ± 1.2 kg/m3
4451.4 kPa
  mass density: 1045.1 ± 1.2 kg/m3
4473.3 kPa
  mass density: 1044.9 ± 1.2 kg/m3
4495 kPa
  mass density: 1045.2 ± 1.2 kg/m3
4520.9 kPa
  mass density: 1045.2 ± 1.2 kg/m3
4542.9 kPa
  mass density: 1045.2 ± 1.2 kg/m3
4569.8 kPa
  mass density: 1045.3 ± 1.2 kg/m3
4592.6 kPa
  mass density: 1045.1 ± 1.3 kg/m3
4616.5 kPa
  mass density: 1045.2 ± 1.2 kg/m3
4644.7 kPa
  mass density: 1045.3 ± 1.2 kg/m3
4667.4 kPa
  mass density: 1045.2 ± 1.2 kg/m3
4686.4 kPa
  mass density: 1045.3 ± 1.2 kg/m3
4703.6 kPa
  mass density: 1045.4 ± 1.2 kg/m3
4720.4 kPa
  mass density: 1045.3 ± 1.2 kg/m3
4741.5 kPa
  mass density: 1045.3 ± 1.2 kg/m3
4758.3 kPa
  mass density: 1045.4 ± 1.2 kg/m3
4771.9 kPa
  mass density: 1045.4 ± 1.2 kg/m3
4786.8 kPa
  mass density: 1045.4 ± 1.2 kg/m3
4797.7 kPa
  mass density: 1045.2 ± 1.2 kg/m3
4827.1 kPa
  mass density: 1045.4 ± 1.2 kg/m3
4830.1 kPa
  mass density: 1045.3 ± 1.2 kg/m3
4830.9 kPa
  mass density: 1045.3 ± 1.2 kg/m3
4834.9 kPa
  mass density: 1045.4 ± 1.2 kg/m3
4837.9 kPa
  mass density: 1045.4 ± 1.2 kg/m3
4839.4 kPa
  mass density: 1045.4 ± 1.2 kg/m3
4840.5 kPa
  mass density: 1045.3 ± 1.2 kg/m3
4841.7 kPa
  mass density: 1045.4 ± 1.2 kg/m3
4842.2 kPa
  mass density: 1045.4 ± 1.2 kg/m3
4842.7 kPa
  mass density: 1045.4 ± 1.2 kg/m3
4842.9 kPa
  mass density: 1045.3 ± 1.2 kg/m3
4843.4 kPa
  mass density: 1045.4 ± 1.2 kg/m3 and 1045.3 ± 1.2 kg/m3
4843.9 kPa
  mass density: 1045.3 ± 1.2 kg/m3 and 1045.4 ± 1.2 kg/m3
4844.1 kPa
  mass density: 1045.3 ± 1.2 kg/m3
4844.4 kPa
  mass density: 1045.4 ± 1.2 kg/m3
4865 kPa
  mass density: 1045.3 ± 1.2 kg/m3
4897.7 kPa
  mass density: 1045.4 ± 1.2 kg/m3
4931.1 kPa
  mass density: 1045.4 ± 1.2 kg/m3
4970.1 kPa
  mass density: 1045.4 ± 1.2 kg/m3
4994.6 kPa
  mass density: 1045.4 ± 1.2 kg/m3
5016.4 kPa
  mass density: 1045.4 ± 1.2 kg/m3
5038.9 kPa
  mass density: 1045.5 ± 1.2 kg/m3
5061.8 kPa
  mass density: 1045.5 ± 1.2 kg/m3
5088.8 kPa
  mass density: 1045.5 ± 1.2 kg/m3
5111.4 kPa
  mass density: 1045.4 ± 1.2 kg/m3
5139.1 kPa
  mass density: 1045.4 ± 1.2 kg/m3
5162.8 kPa
  mass density: 1045.5 ± 1.2 kg/m3
5186.5 kPa
  mass density: 1045.5 ± 1.2 kg/m3
5210.6 kPa
  mass density: 1045.6 ± 1.2 kg/m3
5239.4 kPa
  mass density: 1045.7 ± 1.2 kg/m3
5264.7 kPa
  mass density: 1045.6 ± 1.2 kg/m3
5290.3 kPa
  mass density: 1045.6 ± 1.2 kg/m3
5317.3 kPa
  mass density: 1045.7 ± 1.2 kg/m3
5342.9 kPa
  mass density: 1045.5 ± 1.2 kg/m3
5367.5 kPa
  mass density: 1045.7 ± 1.2 kg/m3
5393.1 kPa
  mass density: 1045.6 ± 1.2 kg/m3
5414.2 kPa
  mass density: 1045.7 ± 1.2 kg/m3
5436 kPa
  mass density: 1045.7 ± 1.2 kg/m3
5462.1 kPa
  mass density: 1045.7 ± 1.2 kg/m3
5484.2 kPa
  mass density: 1045.7 ± 1.2 kg/m3
5506.7 kPa
  mass density: 1045.7 ± 1.2 kg/m3
5533.5 kPa
  mass density: 1045.7 ± 1.2 kg/m3
5556 kPa
  mass density: 1045.9 ± 1.2 kg/m3
5579 kPa
  mass density: 1045.8 ± 1.2 kg/m3
5603.2 kPa
  mass density: 1045.8 ± 1.2 kg/m3
5627.4 kPa
  mass density: 1045.9 ± 1.3 kg/m3
5651.3 kPa
  mass density: 1045.8 ± 1.2 kg/m3
5674.9 kPa
  mass density: 1045.9 ± 1.2 kg/m3
5703.6 kPa
  mass density: 1045.9 ± 1.2 kg/m3
5728 kPa
  mass density: 1046 ± 1.2 kg/m3
5753.1 kPa
  mass density: 1045.9 ± 1.2 kg/m3
5783.4 kPa
  mass density: 1046 ± 1.2 kg/m3
5808.8 kPa
  mass density: 1046 ± 1.2 kg/m3
5831.6 kPa
  mass density: 1045.9 ± 1.2 kg/m3
5852.2 kPa
  mass density: 1046 ± 1.2 kg/m3
5876.5 kPa
  mass density: 1046.1 ± 1.2 kg/m3
5897.6 kPa
  mass density: 1046.1 ± 1.3 kg/m3
5918.4 kPa
  mass density: 1046.1 ± 1.2 kg/m3
5939.8 kPa
  mass density: 1046.1 ± 1.3 kg/m3
5964.7 kPa
  mass density: 1046.1 ± 1.2 kg/m3
5986.2 kPa
  mass density: 1046.1 ± 1.2 kg/m3
6007.4 kPa
  mass density: 1046.3 ± 1.2 kg/m3
6033.9 kPa
  mass density: 1046.1 ± 1.2 kg/m3
6056.2 kPa
  mass density: 1046.2 ± 1.2 kg/m3
6079 kPa
  mass density: 1046.2 ± 1.2 kg/m3
6101.4 kPa
  mass density: 1046.1 ± 1.2 kg/m3
6124.1 kPa
  mass density: 1046.2 ± 1.2 kg/m3
6142.1 kPa
  mass density: 1046.1 ± 1.2 kg/m3
6159.7 kPa
  mass density: 1046.1 ± 1.2 kg/m3
6178 kPa
  mass density: 1046.1 ± 1.2 kg/m3
6190.3 kPa
  mass density: 1046.2 ± 1.2 kg/m3
6202.4 kPa
  mass density: 1046.2 ± 1.2 kg/m3
6213.1 kPa
  mass density: 1046.2 ± 1.2 kg/m3
6221.2 kPa
  mass density: 1046.3 ± 1.2 kg/m3
6226.4 kPa
  mass density: 1046.2 ± 1.2 kg/m3
6231.1 kPa
  mass density: 1046.2 ± 1.2 kg/m3
6237.5 kPa
  mass density: 1046.3 ± 1.2 kg/m3
6242.1 kPa
  mass density: 1046.3 ± 1.2 kg/m3
6247.5 kPa
  mass density: 1046.2 ± 1.3 kg/m3
6252.7 kPa
  mass density: 1046.3 ± 1.3 kg/m3
6258.9 kPa
  mass density: 1046.2 ± 1.3 kg/m3
6263.7 kPa
  mass density: 1046.2 ± 1.3 kg/m3
6268.7 kPa
  mass density: 1046.4 ± 1.3 kg/m3
6273.9 kPa
  mass density: 1046.3 ± 1.3 kg/m3
6280.5 kPa
  mass density: 1046.3 ± 1.3 kg/m3
6285.5 kPa
  mass density: 1046.3 ± 1.3 kg/m3
6290.3 kPa
  mass density: 1046.4 ± 1.3 kg/m3
6296 kPa
  mass density: 1046.2 ± 1.2 kg/m3
6300.7 kPa
  mass density: 1046.2 ± 1.2 kg/m3
6304.9 kPa
  mass density: 1046.2 ± 1.2 kg/m3
6309.5 kPa
  mass density: 1046.2 ± 1.2 kg/m3
6312.6 kPa
  mass density: 1046.3 ± 1.2 kg/m3
6314.7 kPa
  mass density: 1046.4 ± 1.3 kg/m3
6316.4 kPa
  mass density: 1046.2 ± 1.2 kg/m3
6325.3 kPa
  mass density: 1046.3 ± 1.3 kg/m3
6353.3 kPa
  mass density: 1046.3 ± 1.3 kg/m3
6384.4 kPa
  mass density: 1046.4 ± 1.2 kg/m3
6414.9 kPa
  mass density: 1046.3 ± 1.2 kg/m3
6445.5 kPa
  mass density: 1046.5 ± 1.3 kg/m3
6469.5 kPa
  mass density: 1046.4 ± 1.3 kg/m3
6493.9 kPa
  mass density: 1046.3 ± 1.2 kg/m3
6597.9 kPa
  mass density: 1046.5 ± 1.3 kg/m3
6628 kPa
  mass density: 1046.5 ± 1.3 kg/m3
6653.7 kPa
  mass density: 1046.6 ± 1.3 kg/m3
6679.6 kPa
  mass density: 1046.5 ± 1.3 kg/m3
6706.4 kPa
  mass density: 1046.5 ± 1.3 kg/m3
6732.8 kPa
  mass density: 1046.5 ± 1.3 kg/m3
6763.9 kPa
  mass density: 1046.7 ± 1.3 kg/m3
